Test results as given in patent US20140107062A1, “COMPOSITIONS AND METHODS FOR TREATING OR PREVENTING DISEASES OF BODY PASSAGEWAYS” (Aravasc Inc., priority 2007, published 2014).
Converted amounts (≈) assume the structure as drawn. “And” between values parts separate entries of the source, which are not always exact repeats. Equal entries are not always repeated. Where two headings read alike, the source gives them in different places.

Columns and labels:
[1] = Drug distribution 28-day PK study in naïve mice implanted with ETDS; type: in vivo; settings: for Distribution of drugs from the implants in vivo: subcutaneous ETDS implants in mice
Protocol: An in vivo 28-day PK and drug distribution studies was conducted to understand drug distribution and the release profile/duration of drug-released from the different ETDS.
Nine mice were subcutaneously implanted with the same ETDS as implanted in the efficacy study. […] […] Three animals were terminated at each of these time points. Drug distribution in the plasma and skin tissue was analyzed by LC-MS. The preclinical stents were explanted and assayed for residual drug.

[2] = Stability of ICG and HCFU (pH, dissolution media, ETDS product); type: physicochemical
Text: A suboptimal pH (4) for the dissomedia was chosen to preserve both and simultaneously quantitate them as they eluted.
A suboptimal but workable pH 4 was chosen to evaluate the release profile.

[3] = under physiological conditions and under acidic conditions (pH<4); cited from earlier work
[4] = cited from earlier work
[5] = Solubility of analytes and polymer in solvents, dissolution media and water; type: physicochemical
in vivo = settings: rat
Text: The animals were anesthetized while dosing. […] Samples were frozen until processed for LC-MS analysis.
(§1) The equipment used was a SCIEX PE 3000.
(§2) The supernatant extract was subject to LCMS analysis.

[6] = Rat in situ intra-tracheal infusion of THX-polymer formulation; type: in vivo; settings: 8 mg/kg
Protocol: A pilot study of in situ intra-tracheal infusion was performed to estimate tracheal and lung tissue levels after in situ intra-tracheal infusion of THX-polymer formulation.
Two rats (immediately after termination) were intra-tracheally infused over 30 mins with a THX-polymer formulation. The dose was 8 mg/kg and volume was 200 μl. After infusion these were wrapped for 2 hours in a warm heating pad. Tracheo-bronchial and lung tissue were harvested after wiping the lumen area of the tracheo-bronchial lumen with a tissue and spatula (to take off any adsorbed drug) at the end of 2 hours. Samples were frozen at −80 C until processed and analyzed by LC-MS. Sample extraction was conducted at AraVasc Inc. The processed samples were analyzed at Alta Analytical laboratories by LC-MS.
as §1, §2

liver and lung cancer = settings: preliminary reports, clinical trials; cited from earlier work
[7] = administered systemically; cited from earlier work
[8] = Drug levels in tumor-bearing mice at efficacy study termination; type: in vivo; settings: for Drug Exposure, Tumor Tissue / Drug Exposure, Plasma: efficacy study; for Drug Exposure, Tumor Tissue: day 28-47; for Drug Exposure, Plasma: day 28-47, n = 8; for Explanted ETDS (Residual - efficacy): n = 3, ETDS 125 ± 25 ug total drug (1:1)
Protocol: The fast release mini-ETDS ensured the highest dose delivery. Coated or uncoated fast release preclinical ETDS were implanted in contact with tumor (300 mm^3), 14 days after inoculation of human esophageal-gastric cancer line NUGC4-GFP into nude mice. Tumor growth inhibition was evaluated over 47 day period post-implantation (FIG. 24). […] The projected in vivo dose/day based on an assumption of constant release after the initial ‘burst-effect’, is about 0.45 mg/kg/day.
A drug-dye distribution study was conducted in naïve mice. Plasma, skin tissue at implant site and skin tissue at contralateral site was sampled at defined intervals ranging from 2 hours-28 days. Similarly, plasma and tumor tissue was sampled at efficacy study termination at either 28 or […] days post implantation.
Drug-dye exposure levels in each of these biological samples was quantitated by LC-MS to obtain correlations between efficacious levels of exposure and release profile in naïve mice.
The LCMS analysis was conducted using validated bioanalytical methods discussed below except for HCFU. […] Samples were processed and analyzed immediately. Values may be underestimated.

[9] = Day 4, FR ETDS, individual mice
[10] = Day 4, fast release (FR) ETDS, individual mice
[11] = Day 7, FR ETDS, individual mice
[12] = Day 14, FR ETDS, individual mice
[13] = Day 28, FR ETDS, individual mice
[14] = mouse, plasma, subcutaneous, Day 28, FR ETDS, individual mice, read-out: Plasma Conc.
[15] = mouse, skin tissue at implantation site, subcutaneous, Day 14, FR ETDS, individual mice, read-out: Tissue Conc. site of implant
[16] = mouse, skin tissue at implantation site, subcutaneous, Day 28, FR ETDS, individual mice, read-out: Tissue Conc. site of implant
[17] = DMF, organic solvent or mixture, read-out: Solubility
[18] = DMSO, organic solvent or mixture, read-out: Solubility
[19] = THF, organic solvent or mixture, read-out: Solubility
[20] = acetonitrile, organic solvent or mixture, read-out: Solubility
[21] = dissolution media, read-out: Solubility
[22] = 200 μl, infused over 30 mins, harvested at 2 hours, individual rats

CC1(C)C(/C=C/C=C/C=C/C=C2\N(CCCCS(=O)(=O)O)c3ccc4ccccc4c3C2(C)C)=[N+](CCCCS(=O)(=O)[O-])c2ccc3ccccc3c21 [ICG, Indocyanine green]
Tissue Conc. site of implant [1, 9]: 15.3 ng/g and 32.4 ng/g and 20.9 ng/g
Plasma Conc. [1, 10]: 2.39 ng/mL and 3.76 ng/mL
Plasma Conc. [1, 11]: 3.23 ng/mL and 0 ng/mL and 2.26 ng/mL
Tissue Conc. site of implant [1, 11]: 13.2 ng/g and 12.4 ng/g and 35.9 ng/g
Plasma Conc. [1, 12]: 2.23 ng/mL and 0 ng/mL (2×)
Tissue Conc. site of implant [1, 12]: 13.1 ng/g and 14 ng/g
Plasma Conc. [1, 13]: 2.24 ng/mL and 2.26 ng/mL
Tissue Conc. site of implant [1, 13]: 11.8 ng/g and 11.9 ng/g
concentration at 4 day ([1]; mouse, plasma, subcutaneous, Day 4, fast release (FR) ETDS, individual mice, read-out: Plasma Conc.): 3.89 ng/mL
concentration at 28 day [1, 14]: 2.39 ng/mL
concentration at 14 day [1, 15]: 12.2 ng/g
concentration at 28 day [1, 16]: 12.1 ng/g
Distribution of drugs from the implants in vivo [1]: remained confined to the site of implantation
Stability ([2]; acidic pH<4): not stable
Stability in the dissolution media ([2]; pH<3): unstable
half life t1/2 [3]: < 2 min
in-vivo protein binding [4]: about 95%

O=c1[nH]cc(F)c(=O)[nH]1 [FLX, 5-fluorouracil]
solubility [5, 17]: 45.8 mg/mL (≈ 352 mM)
solubility [5, 18]: 59 mg/mL (≈ 454 mM)
solubility [5, 19]: 42.1 mg/mL (≈ 324 mM)
solubility [5, 20]: 1.81 mg/mL (≈ 13.9 mM)
solubility [5, 21]: 42.1 mg/mL (≈ 324 mM)
solubility ([5]; water, read-out: Solubility): > 20 mg/mL
Distribution of drugs from the implants in vivo [1]: High levels

CCCCCOC(=O)Nc1nc(=O)n([C@@H]2O[C@H](C)[C@@H](O)[C@H]2O)cc1F [CPX, Capecitabine]
solubility [5, 17]: > 50 mg/mL
solubility [5, 18]: > 50 mg/mL
solubility [5, 19]: > 50 mg/mL
solubility [5, 20]: > 0.4 mg/mL
solubility [5, 21]: > 10 mg/mL
solubility ([5]; water, read-out: Solubility): > 10 mg/mL

O=C1CCC(N2C(=O)c3ccccc3C2=O)C(=O)N1 (racemic) [THX, 2-(2,6-dioxo-3-piperidinyl)-1H-isoindole-1,3(2H)-dione]
concentration at 20 min (in vivo; 4 mg/Kg): 190 ng/mL
concentration at 40 min (in vivo; 4 mg/Kg): 440 ng/mL
THX levels in lung tissue (in vivo; 12 mg/kg): High levels
THX levels in plasma (in vivo; 12 mg/kg): low levels
Tissue Levels Lung [6, 22]: 0.75 μg/100 mg and 0.58 μg/100 mg
Tissue Levels Trachea [6, 22]: 211.21 μg/100 mg and 290.36 μg/100 mg
THX levels in tracheo-bronchial and lung tissue ([6]; in situ infusion (0.5 hr)): High levels
concentration at 2 h ([6]; rat, lung, other: in situ intra-tracheal infusion, 200 μl, infused over 30 mins, harvested at 2 hours, individual rats, read-out: Tissue Levels Lung): 5800 ng/g
solubility [5, 17]: 75.5 mg/mL (≈ 292 mM)
solubility [5, 18]: 56 mg/mL (≈ 217 mM)
solubility [5, 19]: 3.34 mg/mL (≈ 12.9 mM)
solubility [5, 20]: 0.79 mg/mL (≈ 3.06 mM)
solubility [5, 21]: 3.34 mg/mL (≈ 12.9 mM)
solubility ([5]; water, read-out: Solubility): 1.5 mg/mL (≈ 5.81 mM)
Tissue Conc. site of implant [1, 9]: 387 ng/g and 338 ng/g and 6410 ng/g
Plasma Conc. [1, 10]: 0.95 ng/mL and 3.26 ng/mL and 0.00 ng/mL
Plasma Conc. [1, 11]: 7.27 ng/mL and 9.27 ng/mL
Tissue Conc. site of implant [1, 11]: 22.5 ng/g and 66.5 ng/g and 18.4 ng/g
Plasma Conc. [1, 12]: 2.26 ng/mL and 7.55 ng/mL
Tissue Conc. site of implant [1, 12]: 15.9 ng/g and 16.8 ng/g
Plasma Conc. [1, 13]: 13.7 ng/mL and 7.79 ng/mL
Tissue Conc. site of implant [1, 13]: 20.2 ng/g and 34.0 ng/g and 15.8 ng/g
concentration at 7 day ([1]; mouse, plasma, subcutaneous, Day 7, FR ETDS, individual mice, read-out: Plasma Conc.): 5.42 ng/mL
concentration at 28 day [1, 14]: 9.03 ng/mL
concentration at 14 day [1, 15]: 30.9 ng/g
disease control rates (liver and lung cancer): 8%-57%
response rates (liver and lung cancer): 4%-10%
pulmonary toxicities [7]: No pulmonary toxicities

CCCCCCNC(=O)n1cc(F)c(=O)[nH]c1=O [HCFU, Carmofur]
solubility [5, 17]: > 50 mg/mL
solubility [5, 18]: > 50 mg/mL
solubility [5, 19]: > 50 mg/mL
solubility [5, 20]: > 0.4 mg/mL
solubility [5, 21]: 0.05 to 0.06 mg/mL (≈ 0.194 to 0.233 mM)
solubility ([5]; water, read-out: Solubility): 0.02 to 0.03 mg/mL (≈ 0.0777 to 0.117 mM)
concentration at 28 day ([1]; mouse, plasma, subcutaneous, HCFU, naïve mice, day 28, n = 3, read-out: Drug Exposure, Plasma): 48.2 ng/mL
concentration at 28 day ([1]; mouse, subcutaneous tissue, subcutaneous, HCFU, naïve mice, day 28, n = 3, read-out: Drug Exposure, Subcutaneous Tissue): 43.3 ng/mL
Drug Exposure, Tumor Tissue ([8]; HCFU): 54.1 ng/mL
Drug Exposure, Plasma ([8]; HCFU, tumor-bearing mice): 59 ng/mL and 58.97 ng/mL
Tumor tissue exposure at steady state, average ([8]; HCFU, termination day 28-47): 54 ng/gm
Explanted ETDS (Residual - efficacy) [8]: 2.1 µg
Stability in the dissolution media ([2]; pH>3): unstable
Stability ([2]; pH>4): not stable
Stability ([2]; physiological pH): limited stability

CC(=O)O[C@H]1C(=O)[C@@]2(C)[C@H]([C@H](OC(=O)c3ccccc3)[C@]3(O)C[C@H](OC(=O)[C@H](O)[C@@H](NC(=O)c4ccccc4)c4ccccc4)C(C)=C1C3(C)C)[C@]1(OC(C)=O)CO[C@@H]1C[C@@H]2O [PTX, Paclitaxel]
solubility [5, 17]: 154 mg/mL (≈ 181 mM)
solubility [5, 18]: 27.2 mg/mL (≈ 31.9 mM)
solubility ([5]; THF): 41.7 mg/mL (≈ 48.8 mM)
solubility [5, 20]: 44.3 mg/mL (≈ 51.9 mM)
solubility [5, 21]: 0.05 to 0.06 mg/mL (≈ 0.0586 to 0.0703 mM)
solubility ([5]; water, read-out: Solubility): > 20 mg/mL
Tissue Conc. site of implant [1, 9]: 18000 ng/g and 6270 ng/g and 6990 ng/g
Plasma Conc. [1, 10]: BLOQ
Plasma Conc. [1, 11]: BLOQ
Tissue Conc. site of implant [1, 11]: 22000 ng/g and 10300 ng/g and 47000 ng/g
Plasma Conc. [1, 12]: BLOQ
Tissue Conc. site of implant [1, 12]: 16500 ng/g and 10400 ng/g and 21600 ng/g
Explanted ETDS Conc. (residual drug) ([1]; Day 14 explanted FR ETDS): 12.30 µg and 14.82 µg and 15.13 µg
Plasma Conc. [1, 13]: BLOQ
Tissue Conc. site of implant [1, 13]: 12800 ng/g and 10600 ng/g
Drug Exposure, Plasma ([1]; PTX, naïve mice, day 28, n = 3): BLOQ
concentration at 28 day [1, 16]: 18900 ng/g
concentration at 28 day ([1]; mouse, subcutaneous tissue, subcutaneous, PTX, naïve mice, day 28, n = 3, read-out: Drug Exposure, Subcutaneous Tissue): 12100 ng/g
Drug Exposure, Tumor Tissue ([8]; PTX): 9,668 ng/gm
Drug Exposure, Plasma ([8]; PTX, tumor-bearing mice): 1.53 ng/gm
Average levels detected in plasma ([8]; PTX, tumor-bearing mice): 1.5 ng/mL
Explanted ETDS (Residual - efficacy) [8]: 15.4 µg
pulmonary toxicities [7]: No pulmonary toxicities
